Each compound was assayed on neurons induced to differentiate from SCN1A gene deficient human iPS cells (assay: Test for measuring hyperexcitation suppression activity (spontaneous calcium oscillation frequency)). Conditions: Homo sapiens, Neuron; @0.1 μM; read-out: inhibition rate.
Format: cell-based
Description: Test for Measuring Hyperexcitation Suppression Activity Using Neurons Induced to Differentiate from SCN1A Gene Deficient Human iPS Cells
(1) Induction of Differentiation from Human iPS cells to Neurons
Half of the culture solution was exchanged once every 3 to 4 days.
(2) Fluorescent Calcium Probe Treatment, Addition of Compound, and Evaluation of Intracellular Calcium Concentration
Half of the culture solution was removed on day 60 from induction of differentiation or thereafter. A medium for measurement comprising a fluorescent calcium probe (Molecular Device, product name: FLIPR Calcium 6 Assay Bulk Kit, cat #R8191) was added at an amount equal to the remaining medium. The culture was left standing for 30 minutes and subjected to measurement.
The test compounds were serially diluted with a dimethyl sulfoxide (DMSO) solution so that the final concentration would be 0.1 to 100 μM to prepare a concentrate with a concentration that is 6-fold of the final concentration.
The intensity of fluorescence of a calcium probe was measured over time with FDSS7000EX (Hamamatsu Photonics) to evaluate the change in intracellular calcium concentrations. First, the intensity of fluorescence was measured for 2 minutes. The compound solutions were then added using FDSS7000EX for an additional 8 minute measurement of fluorescence intensity. The frequency of spontaneous calcium oscillation was quantified as an indicator of nerve excitation. With the frequency for 2 minutes before the addition of the compound solutions as 100%, the ratio of frequency for the last 2 minutes after addition of the compound solutions was calculated.
Cc1ccccc1-n1c(Nc2cncc(F)c2)nc2ccc(F)cc2c1=O [Example 4, 6-fluoro-2-((5-fluoropyridin-3-yl)amino)-3-(o-tolyl)quinazolin-4(3H)-one] gave an inhibition at 0.1 µM of 88%.
With O=c1c2ccccc2nc(Nc2cccn3cncc23)n1-c1ccccc1 [Example 69, 2-(imidazo[1,5-a]pyridin-8-ylamino)-3-phenylquinazolin-4(3H)-one] the inhibition at 0.1 µM was 39%.

Same assay, conditions: Homo sapiens, Neuron; @1 μM; read-out: inhibition rate
O=c1c2ccccc2nc(Nc2ccc3ocnc3c2)n1-c1ccccc1 [Example 1, 2-(benzo[d]oxazol-5-ylamino)-3-phenylquinazolin-4(3H)-one] gave an inhibition at 1 µM of 31%.
O=c1c2cc(Cl)ccc2nc(Nc2cccnc2)n1-c1ccccc1Cl [Example 15, 6-chloro-3-(2-chlorophenyl)-2-(pyridin-3-ylamino)quinazolin-4(3H)-one] gave an inhibition at 1 µM of 99%.
For COc1ccncc1Nc1nc2ccc(Cl)cc2c(=O)n1-c1ccccc1 [Example 23], the inhibition at 1 µM was 61%.
Work on Cc1cccnc1Nc1nc2ccc(Cl)cc2c(=O)n1-c1ccccc1 [Example 26] yielded an inhibition at 1 µM of 23%.
Cc1cncc(Nc2nc3ccc(F)cc3c(=O)n2-c2ccccc2)c1 [Example 27] showed an inhibition at 1 µM of 37%.
COc1cncc(Nc2nc3ccc(F)cc3c(=O)n2-c2ccccc2)c1 [Example 28] gave an inhibition at 1 µM of 32%.
Cc1ccc(Nc2nc3ccc(F)cc3c(=O)n2-c2ccccc2)cn1 [Example 30] showed an inhibition at 1 µM of 67%.
In the case of O=c1c2cc(Cl)ccc2nc(Nc2cccnc2)n1-c1ccccc1 [Example 31, 6-chloro-3-phenyl-2-(pyridin-3-ylamino)quinazolin-4(3H)-one], the inhibition at 1 µM is reported as 93%.
O=c1c2cc(F)ccc2nc(Nc2cccnc2)n1-c1cccnc1 [Example 35, 6-fluoro-3-(pyridin-3-yl)-2-(pyridin-3-ylamino)quinazolin-4(3H)-one] gave an inhibition at 1 µM of 88%.
O=c1c2cc(Cl)ccc2nc(Nc2cnccn2)n1-c1ccccc1 [Example 38, 6-chloro-3-phenyl-2-(pyrazin-2-ylamino)quinazolin-4(3H)-one] showed an inhibition at 1 µM of 88%.
With O=c1c2cc(F)ccc2nc(Nc2cnccn2)n1-c1ccccc1 [Example 39, 6-fluoro-3-phenyl-2-(pyrazin-2-ylamino)quinazolin-4(3H)-one] the inhibition at 1 µM was 100%.
Compound N#Cc1cncc(Nc2nc3ccc(Cl)cc3c(=O)n2-c2ccccc2)c1 [Example 41, 5-((6-chloro-4-oxo-3-phenyl-3,4-dihydroquinazolin-2-yl)amino)nicotinonitrile] has an inhibition at 1 µM of 95%.
Work on Cc1ccc2nc(Nc3cccnc3)n(-c3ccccc3)c(=O)c2c1 [Example 42, 6-methyl-3-phenyl-2-(pyridin-3-ylamino)quinazolin-4(3H)-one] yielded an inhibition at 1 µM of 98%.
For O=c1c2cc(F)ccc2nc(Nc2cncc(Cl)c2)n1-c1ccccc1 [Example 45, 2-((5-chloropyridin-3-yl)amino)-6-fluoro-3-phenylquinazolin-4(3H)-one], the inhibition at 1 µM was 100%.
O=c1c2cc(F)ccc2nc(Nc2cncc(C(F)(F)F)c2)n1-c1ccccc1 [Example 48] was tested, and the inhibition at 1 µM was 55%.
Work on O=c1c2cc(Cl)ccc2nc(Nc2cccnc2)n1-c1ccccc1F [Example 51, 6-chloro-3-(2-fluorophenyl)-2-(pyridin-3-ylamino)quinazolin-4(3H)-one] yielded an inhibition at 1 µM of 100%.
For Cn1ncc2ccc(Nc3nc4ccccc4c(=O)n3-c3ccccc3)cc21 [Example 54, 2-((1-methyl-1H-indazol-6-yl)amino)-3-phenylquinazolin-4(3H)-one], the inhibition at 1 µM was 95%.
In the case of O=c1c2ccccc2nc(Nc2cccnc2)n1C1CCCCC1 [Example 57], the inhibition at 1 µM is reported as 21%.
CC(C)n1c(Nc2cccnc2)nc2ccc(F)cc2c1=O [Example 59] showed an inhibition at 1 µM of 39%.
O=c1c2cc(F)ccc2nc(Nc2cccnc2)n1C1CCC(F)(F)CC1 [Example 62] gave an inhibition at 1 µM of 43%.
Work on O=c1c2ccccc2nc(Nc2cccc3cncn23)n1-c1ccccc1 [Example 63] yielded an inhibition at 1 µM of 23%.
With O=c1c2ccccc2nc(Nc2ccn3ccnc3c2)n1-c1ccccc1 [Example 70] the inhibition at 1 µM was 58%.
Work on CN1CCC[C@H](n2c(Nc3cccnc3)nc3ccccc3c2=O)C1 [Example 71] yielded an inhibition at 1 µM of 51%.
Compound C[C@]1(N)CC[C@H](n2c(Nc3cccnc3)nc3ccccc3c2=O)CC1 [Example 73] has an inhibition at 1 µM of 86%.
For CN1[C@@H]2CC[C@H]1C[C@H](n1c(Nc3cccnc3)nc3ccccc3c1=O)C2 [Example 76], the inhibition at 1 µM was 35%.

Same assay, conditions: Homo sapiens, Neuron; @10 μM; read-out: inhibition rate
With Cn1cnc2ccc(Nc3nc4ccccc4c(=O)n3-c3ccccc3)cc21 [Example 2, 2-((1-methyl-1H-benzo[d]imidazol-6-yl)amino)-3-phenylquinazolin-4(3H)-one] the inhibition at 10 µM was 57%.
In the case of O=c1c2cc(Cl)ccc2nc(Nc2ccc3nncn3c2)n1-c1ccccc1 [Example 16], the inhibition at 10 µM is reported as 42%.
Compound COCc1nccc(Nc2nc3ccc(Cl)cc3c(=O)n2-c2ccccc2)n1 [Example 21] has an inhibition at 10 µM of 27%.
With COc1ccc(Nc2nc3ccc(Cl)cc3c(=O)n2-c2ccccc2)cn1 [Example 22] the inhibition at 10 µM was 70%.
With Cc1ncccc1Nc1nc2ccc(Cl)cc2c(=O)n1-c1ccccc1 [Example 24] the inhibition at 10 µM was 54%.
With O=c1c2cc(Cl)ccc2nc(Nc2ccc(F)cn2)n1-c1ccccc1 [Example 25] the inhibition at 10 µM was 82%.
Work on Cc1ncccc1Nc1nc2ccc(F)cc2c(=O)n1-c1ccccc1 [Example 29] yielded an inhibition at 10 µM of 82%.
O=c1c2cc(Cl)ccc2nc(Nc2ccncc2)n1-c1ccccc1 [Example 33] was tested, and the inhibition at 10 µM was 100%.
O=c1c2cc(Cl)ccc2nc(Nc2ccnnc2)n1-c1ccccc1 [Example 34] showed an inhibition at 10 µM of 57%.
In the case of Cc1nccc(Nc2nc3ccc(Cl)cc3c(=O)n2-c2ccccc2)n1 [Example 36], the inhibition at 10 µM is reported as 32%.
For COCc1nccc(Nc2nc3ccc(F)cc3c(=O)n2-c2ccccc2)n1 [Example 37], the inhibition at 10 µM was 68%.
CC(C)c1ccc(Nc2nc3ccc(Cl)cc3c(=O)n2-c2ccccc2)cn1 [Example 44] showed an inhibition at 10 µM of 81%.
Compound Cc1ccncc1Nc1nc2ccc(F)cc2c(=O)n1-c1ccccc1 [Example 47] has an inhibition at 10 µM of 89%.
For CCc1ccc(Nc2nc3ccc(Cl)cc3c(=O)n2-c2ccccc2)cn1 [Example 49], the inhibition at 10 µM was 34%.
CCc1ccc(Nc2nc3ccc(F)cc3c(=O)n2-c2ccccc2)cn1 [Example 50] showed an inhibition at 10 µM of 100%.
Compound O=c1c2cc(Cl)ccc2nc(Nc2ccc(C(F)(F)F)cn2)n1-c1ccccc1 [Example 53] has an inhibition at 10 µM of 79%.
CC(C)n1c(Nc2cccnc2)nc2ccccc2c1=O [Example 55] gave an inhibition at 10 µM of 88%.
O=c1c2ccccc2nc(Nc2cccnc2)n1C1CCCC1 [Example 56] showed an inhibition at 10 µM of 100%.
In the case of O=c1c2ccccc2nc(Nc2cccnc2)n1C1CCC(F)(F)CC1 [Example 58], the inhibition at 10 µM is reported as 100%.
Work on O=c1c2cc(F)ccc2nc(Nc2cccnc2)n1C1CCCC1 [Example 60] yielded an inhibition at 10 µM of 100%.
For O=c1c2cc(F)ccc2nc(Nc2cccnc2)n1C1CCCCC1 [Example 61], the inhibition at 10 µM was 79%.
For O=c1c2ccccc2nc(Nc2cccn3ccnc23)n1-c1ccccc1 [Example 66], the inhibition at 10 µM was 62%.
In the case of O=c1c2ccccc2nc(Nc2cccc3cnoc23)n1-c1ccccc1 [Example 67], the inhibition at 10 µM is reported as 100%.
Work on O=c1c2ccccc2nc(Nc2ccc3cncn3c2)n1-c1ccccc1 [Example 68] yielded an inhibition at 10 µM of 100%.
O=c1c2cc(F)ccc2nc(Nc2cccnc2)n1C12CCN(CC1)CC2 [Example 72] was tested, and the inhibition at 10 µM was 100%.
With C[C@]1(N)CC[C@@H](n2c(Nc3cccnc3)nc3ccccc3c2=O)CC1 [Example 74] the inhibition at 10 µM was 100%.
CN1CCC[C@@H](n2c(Nc3cccnc3)nc3ccccc3c2=O)C1 [Example 75] showed an inhibition at 10 µM of 100%.

Same assay, conditions: Homo sapiens, Neuron; @100 μM; read-out: inhibition rate
COc1ccc2nc(Nc3cccnc3)n(-c3ccccc3)c(=O)c2c1 [Example 13] showed an inhibition at 100 µM of 20%.
COc1cc(F)cc2c(=O)n(-c3ccccc3)c(Nc3cccnc3)nc12 [Example 17] gave an inhibition at 100 µM of 17%.
Cc1cc(Nc2nc3ccc(Cl)cc3c(=O)n2-c2ccccc2)ncn1 [Example 46] was tested, and the inhibition at 100 µM was 34%.

Same assay, conditions: Neuron; SCN1A gene deficient human iPS cell-derived neurons; FLIPR Calcium 6, FDSS7000EX; read-out: IC50 (50% inhibitory concentration, frequency of spontaneous calcium oscillation)
Work on O=c1c2cc(Cl)ccc2nc(Nc2ccc3nccnc3c2)n1-c1ccccc1 [Example 5] yielded an IC50 of 6100 nM.
With O=c1c2cc(Cl)ccc2nc(Nc2cncnc2)n1-c1ccccc1 [Example 6] the IC50 was 400 nM.
With O=c1c2cc(Cl)ccc2nc(Nc2ncccn2)n1-c1ccccc1 [Example 7] the IC50 was 6500 nM.
Cc1ccc(Nc2nc3ccc(Cl)cc3c(=O)n2-c2ccccc2)cn1 [Example 8] showed an IC50 of 1000 nM.
O=c1c2cc(Cl)ccc2nc(Nc2cccnn2)n1-c1ccccc1 [Example 9] was tested, and the IC50 was 600 nM.
Work on COc1ncccc1Nc1nc2ccc(Cl)cc2c(=O)n1-c1ccccc1 [Example 10, 6-chloro-2-((2-methoxypyridin-3-yl)amino)-3-phenylquinazolin-4(3H)-one] yielded an IC50 of 300 nM.
Work on O=c1c2cc(Cl)ccc2nc(Nc2cnccc2C(F)(F)F)n1-c1ccccc1 [Example 11] yielded an IC50 of 5800 nM.
For O=c1c2cc(F)ccc2nc(Nc2cccnn2)n1-c1ccccc1 [Example 18], the IC50 was 800 nM.
Compound O=c1c2cc(F)ccc2nc(Nc2ccnnc2)n1-c1ccccc1 [Example 19] has an IC50 of 2200 nM.
O=c1c2cc(F)ccc2nc(Nc2ccncn2)n1-c1ccccc1 [Example 20] showed an IC50 of 4900 nM.
